Experimental data published in the NIST ThermoML archive (doi:10.1021/je060376d).
± gives the expanded uncertainty stated by the source.

Assay: refractive index (Na D-line) (dimensionless)
Settings: 298.15 K; 101.33 kPa; Liquid; Standard Abbe refractometry

Compound | refractive index
C1CCCCC1 [cyclohexane] | 1.4236 ± 0.0008
CCCCCC [hexane] | 1.3724 ± 0.0007
O=C1CCCCC1 [cyclohexanone] | 1.4498 ± 0.0008
Cc1ccccc1 [toluene] | 1.4942 ± 0.0008
C=CCCCC [hex-1-ene] | 1.3853 ± 0.0008
CC(C)=O [acetone] | 1.3562 ± 0.0012
COCCOCCOC [2,5,8-trioxanonane] | 1.4057 ± 0.0008
